What was measured:
[1] = tested on: S-RBD-ACE2 interaction, AH109 (pAD-S-RBD+pBD-ACE2); type: cell-based, SARS-CoV-2 S-RBD, human ACE2 (in yeast)
[2] = target: S-RBD-ACE2 interaction, AH109 (pAD-S-RBD+pBD-ACE2) (UniProt P0DTC2+Q9BYF1); type: cell-based, SARS-CoV-2 S-RBD, human ACE2 (in yeast)

Row | Compound | Difference of MICs among AH109 (pAD-S-RBD+pBD-ACE2) and AH109 (pAD-T+pBD-53) [1] [fold] | MIC against AH109 (pAD-S-RBD+pBD-ACE2) [2] [μg/mL]
1 | O=C(c1ccc(N2CCCCS2(=O)=O)cc1)N1CCN(C(=O)c2ccco2)CC1 [IMB-1C] | 2 | 
2 | Cc1ccc(N(Sc2ccc(Cl)cc2)C2C=CS(=O)(=O)C2)cc1 (stereo not drawn) [IMB-4A] | 2 | 
3 | CC(C)CCC[C@@H](C)[C@H]1CC[C@H]2[C@@H]3CC[C@H]4C[C@@H](O[C@@H]5O[C@H](COS(=O)(=O)O)[C@@H](O[C@H]6O[C@H](COS(=O)(=O)O)[C@@H](O[C@H]7O[C@H](COS(=O)(=O)O)[C@@H](O[C@H]8O[C@H](COS(=O)(=O)O)[C@@H](OS(=O)(=O)O)[C@H](OS(=O)(=O)O)[C@H]8OS(=O)(=O)O)[C@H](OS(=O)(=O)O)[C@H]7OS(=O)(=O)O)[C@H](OS(=O)(=O)O)[C@H]6OS(=O)(=O)O)[C@H](OS(=O)(=O)O)[C@H]5OS(=O)(=O)O)CC[C@]4(C)[C@H]3CC[C@]12C [Pixatimod, reference compound] |  | 1.56
